Test system: EGFR
Assay: Western blot degradation of EGFR (H1975 Cell)
Format: cell-based, Human
Settings: Table D2
Protocol: Conventional Western blot assay was performed to evaluate the effects of the compounds of the present disclosure on the expression of target proteins in cells.
(1) Cell Seeding and Protein Harvesting: The selected cells were processed according to the cell seeding procedure and protein harvesting procedure in Table III-2. Table III-2 Cell Seeding and Protein Harvesting Procedures
(2) To the collected supernatant, 5X SDS sample loading buffer was added, followed by denaturation at 95°C for 5 minutes. The denatured samples were then separated by SDS-PAGE electrophoresis on a polyacrylamide gel. Proteins were transferred to a nitrocellulose membrane (0.45 µm NC membrane), blocked with blocking buffer at room temperature for 1 hour, and subjected to antibody incubation and development procedures according to the antibody manufacturer's instructions (Cell Signaling Technology).
Half-Maximal Degradation Concentration value (the drug concentration required for degrading proteins by 50%, abbreviated as DC50) reads method: comparing the grayscale values of Western blot bands from drug-treated samples with those from blank DMSO-treated controls, and identifying the drug concentration range at which the grayscale value is half that of the DMSO-treated control bands.
DC50 values can be calculated using ImageJ software to measure grayscale values of Western blot bands from drug-treated samples. The concentration-response curve is fitted to estimate the drug concentration corresponding to half the grayscale value.
Target protein remaining (%) refers to the percentage of target protein remaining in hPBMC cells after treatment with protein degrader compounds.
Calculation method for target protein remaining (%): Use ImageJ software to measure grayscale values of Western blot bands from drug (protein degrader)-treated samples. The grayscale value of drug-treated bands is divided by that of internal control protein bands, and the resulting quotient is normalized to obtain the relative percentage of remaining target protein after protein degrader treatment.
Target protein degradation rate (%) = 100% - target protein remaining (%).

SMILES | Degradation of substrate protein EGFR (substrate protein remaining %)
CN(Cc1ccc(N2CCC(=O)NC2=O)cn1)C1CCN(c2ccc(Nc3ncc4nc(Nc5ccccc5)n(C5CCCC5)c4n3)cc2)CC1 [GT-07093, 1-(6-(((1-(4-((9-cyclopentyl-8-(phenylamino)-9H-purin-2-yl)amino)phenyl)piperidin-4-yl)(methyl)amino)methyl)pyridin-3-yl)dihydropyrimidine-2,4(1H,3H)-dione] | A (A is defined as 0% ≤ substrate protein remaining % ≤ 80%)
CC(C)n1nc(N2CCN(Cc3ccc(N4CCC(=O)NC4=O)cn3)CC2)c2cnc(Nc3ccnc(-c4cnn(S(=O)(=O)C5CC5)c4)n3)cc21 [GT-06014, 1-(6-((4-(6-((2-(1-(cyclopropylsulfonyl)-1H-pyrazol-4-yl)pyrimidin-4-yl)amino)-1-isopropyl-1H-pyrazolo[4,3-c]pyridin-3-yl)piperazin-1-yl)methyl)pyridin-3-yl)dihydropyrimidine-2,4(1H,3H)-dione] | A (A is defined as 0% ≤ substrate protein remaining % ≤ 80%)
COC1CCN(c2nccc(Nc3cc4c(cn3)c(N3CCN(Cc5ccc(N6CCC(=O)NC6=O)cn5)CC3)nn4C(C)C)n2)CC1 [GT-06039, 1-(6-((4-(1-isopropyl-6-((2-(4-methoxypiperidin-1-yl)pyrimidin-4-yl)amino)-1H-pyrazolo[4,3-c]pyridin-3-yl)piperazin-1-yl)methyl)pyridin-3-yl)dihydropyrimidine-2,4(1H,3H)-dione] | A (A is defined as 0% ≤ substrate protein remaining % ≤ 80%)
COC1CCN(c2nccc(Nc3cc4c(cn3)c(N3CCC(N(C)Cc5cccc(NC6CCC(=O)NC6=O)c5)CC3)nn4C(C)C)n2)CC1 (stereo not shown) [GT-06123, 3-((3-(((1-(1-isopropyl-6-((2-(4-methoxypiperidin-1-yl)pyrimidin-4-yl)amino)-1H-pyrazolo[4,3-c]pyridin-3-yl)piperidin-4-yl)(methyl)amino)methyl)phenyl)amino)piperidine-2,6-dione] | A (A is defined as 0% ≤ substrate protein remaining % ≤ 80%)
CC(C)n1nc(N2CCC(N3CCN(Cc4cccc(NC5CCC(=O)NC5=O)c4)CC3)CC2)c2cnc(Nc3ccnc(-c4cnn(S(=O)(=O)C5CC5)c4)n3)cc21 (stereo not shown) [GT-06083, 3-((3-((4-(1-(6-((2-(1-(cyclopropylsulfonyl)-1H-pyrazol-4-yl)pyrimidin-4-yl)amino)-1-isopropyl-1H-pyrazolo[4,3-c]pyridin-3-yl)piperidin-4-yl)piperazin-1-yl)methyl)phenyl)amino)pip eridine-2,6-dione] | A (A is defined as 0% ≤ substrate protein remaining % ≤ 80%)
CC(C)n1nc(N2CCN(Cc3ccc(N4CCC(=O)NC4=O)nc3)CC2)c2cnc(Nc3ccnc(-c4cnn(S(=O)(=O)C5CC5)c4)n3)cc21 [GT-06015, 1-(5-((4-(6-((2-(1-(cyclopropylsulfonyl)-1H-pyrazol-4-yl)pyrimidin-4-yl)amino)-1-isopropyl-1H-pyrazolo[4,3-c]pyridin-3-yl)piperazin-1-yl)methyl)pyridin-2-yl)dihydropyrimidine-2,4(1H,3H)-dione] | A (A is defined as 0% ≤ substrate protein remaining % ≤ 80%)
O=C1CCN(c2ccc(CN3C4CCC3CN(c3ccc(-c5cc(F)c6c(c5)C(=O)N(C(C(=O)Nc5nccs5)c5ncn7c5CCC7)C6)cc3)C4)cn2)C(=O)N1 (stereo not shown) [GT-06256, 2-(6,7-dihydro-5H-pyrrolo[1,2-c]imidazol-1-yl)-2-(6-(4-(8-((6-(2,4-dioxotetrahydropyrimidin-1(2H)-yl)pyridin-3-yl)methyl)-3,8-diazabicyclo[3.2.1]octan-3-yl)phenyl)-4-fluoro-1-oxoisoindolin-2-yl)-N-(thiazol-2-yl)acetamide] | A (A is defined as 0% ≤ substrate protein remaining % ≤ 80%)
COC1CCN(c2nccc(Nc3cc4c(cn3)c(N3CCC(N(C)Cc5cccc(N6CCC(=O)NC6=O)c5)CC3)nn4C(C)C)n2)CC1 [GT-06122, 1-(3-(((1-(1-isopropyl-6-((2-(4-methoxypiperidin-1-yl)pyrimidin-4-yl)amino)-1H-pyrazolo[4,3-c]pyridin-3-yl)piperidin-4-yl)(methyl)amino)methyl)phenyl)dihydropyrimidine-2,4(1H,3H)-dione] | A (A is defined as 0% ≤ substrate protein remaining % ≤ 80%)
COC1CCN(c2nccc(Nc3cc4c(cn3)c(N3CCC(N(C)Cc5ccc(N6CCC(=O)NC6=O)cc5)CC3)nn4C(C)C)n2)CC1 [GT-06121, 1-(4-(((1-(1-isopropyl-6-((2-(4-methoxypiperidin-1-yl)pyrimidin-4-yl)amino)-1H-pyrazolo[4,3-c]pyridin-3-yl)piperidin-4-yl)(methyl)amino)methyl)phenyl)dihydropyrimidine-2,4(1H,3H)-dione] | A (A is defined as 0% ≤ substrate protein remaining % ≤ 80%)
CC(C)n1nc(N2CCC(N3CCN(Cc4ccc(N5CCC(=O)NC5=O)cc4)CC3)CC2)c2cnc(Nc3ccnc(-c4cnn(S(=O)(=O)C5CC5)c4)n3)cc21 [GT-06079, 1-(4-((4-(1-(6-((2-(1-(cyclopropylsulfonyl)-1H-pyrazol-4-yl)pyrimidin-4-yl)amino)-1-isopropyl-1H-pyrazolo[4,3-c]pyridin-3-yl)piperidin-4-yl)piperazin-1-yl)methyl)phenyl)dihydropyr imidine-2,4(1H,3H)-dione] | A (A is defined as 0% ≤ substrate protein remaining % ≤ 80%)
CN(Cc1ccc(N2CCC(=O)NC2=O)cc1)C1CCN(c2ccc(Nc3ncc4nc(Nc5ccccc5)n(C5CCCC5)c4n3)cc2)CC1 [GT-07092, 1-(4-(((1-(4-((9-cyclopentyl-8-(phenylamino)-9H-purin-2-yl)amino)phenyl)piperidin-4-yl)(methyl)amino)methyl)phenyl)dihydropyrimidine-2,4(1H,3H)-dione] | A (A is defined as 0% ≤ substrate protein remaining % ≤ 80%)
CC(C)n1nc(N2CCN(Cc3cccc(NC4CCC(=O)NC4=O)c3)CC2)c2cnc(Nc3ccnc(-c4cnn(S(=O)(=O)C5CC5)c4)n3)cc21 (stereo not shown) [GT-06016, 3-((3-((4-(6-((2-(1-(cyclopropylsulfonyl)-1H-pyrazol-4-yl)pyrimidin-4-yl)amino)-1-isopropyl-1H-pyrazolo[4,3-c]pyridin-3-yl)piperazin-1-yl)methyl)phenyl)amino)pip eridine-2,6-dione] | A (A is defined as 0% ≤ substrate protein remaining % ≤ 80%)
O=C1CCN(c2ccc(CN3C[C@@H]4C[C@H]3CN4c3ccc(-c4cc(F)c5c(c4)C(=O)N(C(C(=O)Nc4nccs4)c4ncn6c4CCC6)C5)cc3)cn2)C(=O)N1 (stereo partly drawn) [GT-05120, 2-(6,7-dihydro-5H-pyrrolo[1,2-c]imidazol-1-yl)-2-(6-(4-((1S,4S)-5-((6-(2,4-dioxotetrahydropyrimidin-1(2H)-yl)pyridin-3-yl)methyl)-2,5-diazabicyclo[2.2.1]heptan-2-yl)phenyl)-4-fluoro-1-oxoisoindolin-2-yl)-N-(thiazol-2-yl)acetamide] | A (A is defined as 0% ≤ substrate protein remaining % ≤ 80%)
